Results on two compounds are retold here after patent US20250268801A1, “DRY CREAMS AND TOPICAL DELIVERY SYSTEMS” (UEA Enterprises Limited, priority 2021, published 2025).

SMILES strings stand for the structures. In brackets after ≈: the same amount, converted by molar mass.

Data set [1] is described as follows: Drug solubility in loading solvent. The note with it: sunflower oil, oil or lipid. In kind it is physicochemical. As for the experimental part:
The maximum amount of metoprolol which can dissolve in the volume of ethanol in a 10% solution was precisely weighed out and dissolved in the ethanol—DCM in the HPMCAS-PVP polymer solution before it was electrospun. When coumarin (hydrophobic fluorescent dye) was added, the voltage was increased to 19.1 kv. […] Ketoconazole was dissolved in sunflower oil.

The conditions of data set [2]: cited from earlier work.

The solubility is the concentration that dissolves in the medium under given conditions. A higher solubility goes with a readily soluble substance. In turn, `CC(=O)N1CCN(c2ccc(OCC3COC(Cn4ccnc4)(c4ccc(Cl)cc4Cl)O3)cc2)CC1` (centres unmarked) [Ketoconazole] displayed a solubility in data set [1] of roughly 5800 µg/mL (≈ 10.9 mM).
As for `COCCc1ccc(OCC(O)CNC(C)C)cc1` (centres unmarked) [Metoprolol], the solubility in ethanol in data set [2] was 31000 µg/mL (≈ 116 mM).
